# Where two headings read alike, the source gives them in different places.
# Experiments:
# S. aureus ATCC 13709 = assay: MIC, S. aureus ATCC 13709 (Alamar Blue broth microdilution); format: cell-based; conditions: for MIC: Staphylococcus aureus, ATCC13709, S. aureus
# E. coli ATCC 25922 = assay: MIC, E. coli ATCC 25922; format: cell-based; conditions: for MIC: Escherichia coli, ATCC25922, E. coli
# [1] = S. aureus, Alamar Blue read after overnight incubation at 35° C.
# [2] = E. coli, Alamar Blue read after overnight incubation at 35° C.
# [3] = Alamar Blue read after overnight incubation at 35° C.
SMILES,MIC Sa (S. aureus ATCC 13709; [1]),MIC Ec (E. coli ATCC 25922; [2]),MIC (S. aureus ATCC 13709; [3]),MIC (E. coli ATCC 25922; [3]),also measured
CNc1cc(F)cc2c1[nH]c1nc(Oc3cc(O)c4c(C)cc(=O)oc4c3)nc(N3CC4CC(N)C4C3)c12 (stereo not shown) [4.382],1 µg/mL,16 µg/mL,–,–,–
CNc1ncnc2c1[nH]c1nc(Oc3cnc(C)nc3)nc(N3CC(N)C4(CC4)C3)c12 (stereo not shown) [7.08],–,–,16 µg/mL,> 64 µg/mL,–
CNc1cccc2c1[nH]c1nc(Sc3cnc4cccnc4c3)nc(N3CCN(C(C)=O)CC3)c12 [1.67],–,–,≤ 0.5 µg/mL,> 64 µg/mL,–
CNc1cc(F)cc2c1[nH]c1nc(Oc3cnc(N4CCOCC4)nc3)nc(N3CC(N)C4(CC4)C3)c12 (stereo not shown) [4.213],≤0.5 µg/mL,1 µg/mL,–,–,–
CNc1cc(F)cc2c1[nH]c1nc(Oc3cncc(-c4nnnn4C)c3)nc(N3CC4C(N)C4C3)c12 (stereo not shown) [4.168],–,–,≤ 0.5 µg/mL,2 µg/mL,–
CNc1cc(F)cc2c1[nH]c1nc(Oc3cnc(N)nc3)nc(N3C[C@H]4CC3C[C@H]4N)c12 [4.191],–,–,≤ 0.5 µg/mL,2 µg/mL,–
CNc1cc(F)cc2c1[nH]c1nc(Oc3cnc(CCO)nc3)nc(N3CC4CC3C[C@@H]4N)c12 (stereo partly shown) [4.414],–,–,≤ 0.5 µg/mL,2 µg/mL,–
CNc1cc(F)cc2c1[nH]c1nc(Oc3cnc(CF)nc3)nc(N3C[C@H]4CC3C[C@H]4N)c12 [4.443],–,–,≤ 0.5 µg/mL,≤ 0.5 µg/mL,–
CNc1cc(F)cc2c1[nH]c1nc(Oc3cnc(C)nc3)nc(N3CC(N)C(C(=O)OC)C3)c12 (stereo not shown) [4.437],–,–,≤ 0.5 µg/mL,1 µg/mL,–
CNc1cc(F)cc2c1[nH]c1nc(Oc3cnc(SC)nc3)nc(N3CC4CCC(N)C4C3)c12 (stereo not shown) [4.200],≤0.5 µg/mL,≤0.5 µg/mL,–,–,–
CNc1cc(F)cc2c1[nH]c1nc(Oc3cnc(C)nc3)nc(N3CC4C(CN)C4C3)c12 (stereo not shown) [4.106],≤0.5 µg/mL,2 µg/mL,–,–,–
CNc1cccc2c1[nH]c1nc(Oc3cncc(C(=O)O)c3)nc(N3CC4C(N)C4C3)c12 (stereo not shown) [3.20],–,–,> 8 µg/mL,> 8 µg/mL,–
CNc1cc(F)cc2c1[nH]c1nc(Oc3cnc(C4CC4)nc3)nc(N3CC4NCCCC43)c12 (stereo not shown) [4.247],–,–,1 µg/mL,8 µg/mL,–
CNc1cccc2c1[nH]c1nc(Oc3cncc(F)c3)nc(N3CC4C(N)C4C3)c12 (stereo not shown) [3.33],–,–,≤ 0.5 µg/mL,1 µg/mL,–
CNc1cc(F)cc2c1[nH]c1nc(Oc3cnc(C)nc3)nc(N3CC4CNC(C4)C3)c12 (stereo not shown) [4.072],–,–,≤ 0.5 µg/mL,1 µg/mL,–
CNc1cc(F)cc2c1[nH]c1nc(Oc3cncc(-c4ccco4)c3)nc(N3CC4CC(N)C4C3)c12 (stereo not shown) [4.350],≤0.5 µg/mL,4 µg/mL,–,–,–
CNc1cc(F)cc2c1[nH]c1nc(Oc3cnc(C4CC4)nc3)nc(N3CC4CC(N)C4C3)c12 (stereo not shown) [4.240],–,–,≤ 0.5 µg/mL,≤ 0.5 µg/mL,–
CNc1cccc2c1[nH]c1nc(Sc3cnc4ccc[n+]([O-])c4c3)nc(N3C[C@@H]4[C@H](C3)[C@@]4(N)C(N)=O)c12 [1.19],–,–,> 64 µg/mL,> 64 µg/mL,–
CCc1ncc(Oc2nc(N3C[C@H](N)C4(CC4)C3)c3c(n2)[nH]c2c(NC)cc(F)cc23)cn1 [4.259],–,–,≤ 0.5 µg/mL,≤ 0.5 µg/mL,–
CNc1cc(F)cc2c1[nH]c1nc(Oc3cncc(Cl)c3)nc(N3CCC4(C[C@H]4N)C3)c12 (stereo partly shown) [4.278],–,–,≤ 0.5 µg/mL,≤ 0.5 µg/mL,–
CNc1cc(F)cc2c1[nH]c1nc(Oc3cnc(C(C)C)nc3)nc(N3C[C@H](N)C4(CC4)C3)c12 [4.233],–,–,≤ 0.5 µg/mL,1 µg/mL,–
CNc1cc(F)cc2c1[nH]c1nc(Oc3cnc(C)nc3)nc(N3CC4CC3CC4N)c12 (stereo not shown) [4.128],≤0.5 µg/mL,4 µg/mL,–,–,–
CNc1cc(C(F)(F)F)cc2c1[nH]c1nc(Oc3cnc(C)nc3)nc(N3CC4C(N)C4C3)c12 (stereo not shown) [6.10],–,–,–,–,MIC Sa (S. aureus ATCC 13709): ≤0.5 µg/mL; MIC Ec (E. coli ATCC 25922): ≤0.5 µg/mL
CNc1cc(F)cc2c1[nH]c1nc(Oc3cnc(N)nc3)nc(N3CC(N)C4(CC4)C3)c12 (stereo not shown) [4.177],≤0.5 µg/mL,≤0.5 µg/mL,–,–,–
CNc1cc(F)cc2c1[nH]c1nc(Oc3cnc(C)nc3)nc(N3CC4CONC4C3)c12 (stereo not shown) [4.122],≤0.5 µg/mL,1 µg/mL,–,–,–
CNc1cc(F)cc2c1[nH]c1nc(Oc3cnc(C)nc3)nc(N3CC(N)C4(CC4)C3)c12 (stereo not shown) [4.065],≤0.5 µg/mL,≤0.5 µg/mL,–,–,–
CNc1cc(F)cc2c1[nH]c1nc(Oc3cnc(C)nc3)nc(N3CCC4(CC3)NC(=O)NC4=O)c12 [4.107],>16 µg/mL,>16 µg/mL,–,–,–

SMILES,MIC Sa (S. aureus ATCC 13709; [1]),MIC Ec (E. coli ATCC 25922; [2]),MIC (S. aureus ATCC 13709; [3]),MIC (E. coli ATCC 25922; [3]),also measured
CNc1cc(F)cc2c1[nH]c1nc(Oc3cncnc3)nc(N3CC4CCC(N)C4C3)c12 (stereo not shown) [4.016],–,–,≤ 0.5 µg/mL,1 µg/mL,–
CNc1cc(F)cc2c1[nH]c1nc(Oc3cnc4cccnc4c3)nc(N3C[C@H](N)C4(CC4)C3)c12 [4.038],–,–,≤ 0.5 µg/mL,≤ 0.5 µg/mL,–
CNc1cc(F)cc2c1[nH]c1nc(Oc3cncnc3)nc(N3CCC(N)C3)c12 (stereo not shown) [4.007],≤0.5 µg/mL,≤0.5 µg/mL,–,–,–
CNc1cc(F)cc2c1[nH]c1nc(Oc3cnc(C)nc3)nc(N3CC4CCC(N)C4C3)c12 (stereo not shown) [4.075],≤0.5 µg/mL,≤0.5 µg/mL,–,–,–
CNc1cc(F)cc2c1[nH]c1nc(Oc3cnc(C)nc3)nc(N3CC(CN)C3)c12 [4.143],≤0.5 µg/mL,2 µg/mL,–,–,–
CNc1cc(F)cc2c1[nH]c1nc(Oc3cnc(C)nc3)nc(N3CC4CCC(N)CC4C3)c12 (stereo not shown) [4.092],≤0.5 µg/mL,2 µg/mL,–,–,–
CNc1cc(F)cc2c1[nH]c1nc(Oc3ccc4c(c3)C(=O)NCC4)nc(N3CCC4(CC4N)C3)c12 (stereo not shown) [4.300],≤0.5 µg/mL,≤0.5 µg/mL,–,–,–
CNc1cc(F)cc2c1[nH]c1nc(Oc3cnc(C)nc3)nc(N3CC(NC(=O)C(C)NC(=O)C(C)N)C4(CC4)C3)c12 (stereo not shown) [4.145],1 µg/mL,8 µg/mL,–,–,–
CNc1cc(F)cc2c1[nH]c1nc(Oc3cncc(F)c3)nc(N3CC4CC(N)C3C4)c12 (stereo not shown) [4.063],1 µg/mL,8 µg/mL,–,–,–
CNc1cccc2c1[nH]c1nc(Sc3cnc4ccc[n+]([O-])c4c3)nc(N3CC4CNC4C3)c12 (stereo not shown) [1.32],–,–,≤ 0.5 µg/mL,4 µg/mL,–
CNc1cc(F)cc2c1[nH]c1nc(Oc3cnc4c(c3)OC=CO4)nc(N3C[C@H](N)C4(CC4)C3)c12 [4.305],≤0.5 µg/mL,1 µg/mL,–,–,–
CNc1cc(F)cc2c1[nH]c1nc(Oc3cnc(CO)nc3)nc(N3CC4CC3C[C@@H]4N)c12 (stereo partly shown) [4.390],–,–,≤ 0.5 µg/mL,≤ 0.5 µg/mL,–
CNc1cccc2c1[nH]c1nc(Oc3cnc(C)nc3)nc(N3CC[C@@H](NCCC#N)C3)c12 [3.10],–,–,32 µg/mL,> 64 µg/mL,–
CNc1cc(F)cc2c1[nH]c1nc(Oc3ccc4ncsc4c3)nc(N3C[C@H]4CC[C@@H](N)[C@H]4C3)c12 [4.320],–,–,≤ 0.5 µg/mL,1 µg/mL,–
CNc1cc(F)cc2c1[nH]c1nc(Oc3cnc(CC(=O)N4CCC(N)C4)nc3)nc(N3CC(N)C4(CC4)C3)c12 (stereo not shown) [4.372],4 µg/mL,16 µg/mL,–,–,–
COc1cccc2c1[nH]c1nc(Sc3cnc4cccnc4c3)nc(N3CC4C(N)C4C3)c12 (stereo not shown) [1.75],–,–,≤ 0.5 µg/mL,> 64 µg/mL,–
CNc1cccc2c1[nH]c1nc(Oc3cncnc3)nc(N3CC4C(C3)C4NCC3CC3)c12 (stereo not shown) [3.13],–,–,≤ 0.5 µg/mL,1 µg/mL,–
CNc1cc(F)cc2c1[nH]c1nc(Oc3cnc(CCO)nc3)nc(N3CC4C[C@@H](N)C4C3)c12 (stereo partly shown) [4.429],≤0.5 µg/mL,1 µg/mL,–,–,–
CNc1cccc2c1[nH]c1nc(Sc3cnc4ccc[n+]([O-])c4c3)nc(N3CC[C@@H](C)[C@@H](N)C3)c12 [1.35],–,–,≤ 0.5 µg/mL,2 µg/mL,–
CNc1cc(F)cc2c1[nH]c1nc(Oc3cnc(C)nc3)nc(-c3cc(CN)ccc3F)c12 [4.421],–,–,2 µg/mL,8 µg/mL,–
CNc1cccc2c1[nH]c1nc(Sc3cnc4ccc[n+]([O-])c4c3)nc(N3CCC4(CC4N)C3)c12 (stereo not shown) [1.38],–,–,≤ 0.5 µg/mL,2 µg/mL,–
CNc1cccc2c1[nH]c1nc(Oc3cncnc3)nc(N3CCC4(CC4N)C3)c12 (stereo not shown) [3.41],–,–,≤ 0.5 µg/mL,≤ 0.5 µg/mL,–
CNc1cccc2c1[nH]c1nc(Oc3cnc(C)nc3)nc(Oc3cnc(C)nc3)c12 [3.38],–,–,1 µg/mL,> 32 µg/mL,–
CNc1cc(F)cc2c1[nH]c1nc(Oc3cnc(CC(=O)N4CC(N(C)C)C4)nc3)nc(N3C[C@H](N)C4(CC4)C3)c12 [4.373],–,–,2 µg/mL,8 µg/mL,–
CNc1cc(F)cc2c1[nH]c1nc(Oc3cnc(C)nc3)nc(N3C[C@H]4CCC(N)[C@@]4(C)C3)c12 (stereo partly shown) [4.099],≤0.5 µg/mL,4 µg/mL,–,–,–
CNc1cc(F)cc2c1[nH]c1nc(Oc3cnc(N)nc3)nc(N3CC4C(CN)C4C3)c12 (stereo not shown) [4.188],–,–,≤ 0.5 µg/mL,8 µg/mL,–

# From patent US10858360B2, “Tricyclic gyrase inhibitors” (priority 2011, dated 2020)
